Reference: patent US11390597B2, “Salt and solid state forms of escitalopram” (priority 2017, dated 2022)

Columns and labels:
[1] = Comparative pharmacokinetics of escitalopram salts, IV and SC administration in rats; format: in vivo; conditions: Sprague dawley rats, single IV dose 1 mg/kg or SC dose 5 mg/kg, blood analyzed for escitalopram
Protocol: Escitalopram salt solutions are prepared for intravenous (IV) and/or subcutaneous (SC) administration as follows: A 1 mg/kg solution of escitalopram oxalate (Ox-Esc) is prepared for IV administration at 1 mL/kg in 10% DMSO, 30% Solutol® (polyoxyethylated 12-hydroxystearic acid), 60% PBS.
A 1 mg/kg solution of escitalopram pamoate (P-Esc) is prepared for IV administration 1 mL/kg in 10% DMSO, 30% Solutol®, 60% PBS, and for SC administration 200 uL of 5 mg/kg in DMSO.
(§1) The pharmacokinetics of IV administered escitalopram oxalate are determined as follows. […] Blood is collected from rats post dose in EDTA K2 tubes in a staggered design (cohort 1: 0 min, 30 min, 4 hr, 24 hr; cohort 2: 5 min, 1 hr, 8 hr, 36 hr; cohort 3: 15 min, 2 hr, 12 hr, 48 hr) and analyzed for escitalopram.
as §1, with “pamoate” for “oxalate”
The pharmacokinetics of SC administered escitalopram pamoate are determined as follows. […] Blood is collected from rats post dose in EDTA K2 tubes in a staggered design (cohort 1: 0 min, 1 hr, 8 hr, 48 hr; cohort 2: 5 min, 2 hr, 24 hr, 72 hr; cohort 3: 30 min, 4 hr, 36 hr, 96 hr) and analyzed for escitalopram. […]

[2] = Treatment of human subjects with escitalopram gentisate composition; format: in vivo; conditions: human subject afflicted with a neuropsychiatric disorder, periodic administration (IV, oral, subcutaneous)
Excerpt: Periodic administration is meant to include inter alia IV, oral and subcutaneous administration.

Question: What does the source list for CN(C)CCCC1(c2ccc(F)cc2)OCc2cc(C#N)ccc21.O=C(O)c1cc(O)ccc1O (centres unmarked) [escitalopram gentisate]?
Answer: pharmacokinetic profile compared with pamoate and oxalate salts [1]: distinct from those of the pamoate and oxalate salts; reducing or eliminating the symptoms of the neuropsychiatric disorder [2]: clinically meaningful advantage in reducing or eliminating the symptoms
